{
  "source": "patent US20240358662A1",
  "about": "“COMPOSITIONS, METHODS AND SYSTEMS FOR AEROSOL DRUG DELIVERY” (ASTRAZENECA PHARMACEUTICALS LP, priority 2021, published 2024)",
  "origin": "cited, not measured here",
  "details": "for Latent Heat @ Boiling Point: at boiling point",
  "data": [
    {"smiles": "FCC(F)(F)F", "note": "[HFA-134a, 1,1,1,2-tetrafluoroethane]", "values": [
      {"measurement": "Liquid Density @ 20° C.", "value": 1.23, "unit": "g/mL"},
      {"measurement": "Liquid Viscosity @ 20° C. (mPa · S)", "value": 0.211, "unit": "mPa · S"},
      {"measurement": "Surface Tension @ 20° C. (mN/m)", "value": 8.09, "unit": "mN/m"},
      {"measurement": "Vapor Pressure @ 20° C. (kPa)", "value": 570, "unit": "kPa"},
      {"measurement": "Latent Heat @ 25° C.", "value": 177.7, "unit": "kJ/kg"},
      {"measurement": "Latent Heat @ Boiling Point", "value": 216.7, "unit": "kJ/kg"}
    ]},
    {"smiles": "FC(C(F)(F)F)C(F)(F)F", "note": "[HFA-227ea, 1,1,1,2,3,3,3-Heptafluoropropane]", "values": [
      {"measurement": "Liquid Density @ 20° C.", "value": 1.41, "unit": "g/mL"},
      {"measurement": "Liquid Viscosity @ 20° C. (mPa · S)", "value": 0.267, "unit": "mPa · S"},
      {"measurement": "Surface Tension @ 20° C. (mN/m)", "value": 7.50, "unit": "mN/m"},
      {"measurement": "Vapor Pressure @ 20° C. (kPa)", "value": 390, "unit": "kPa"},
      {"measurement": "Latent Heat @ 25° C.", "value": 110.97, "unit": "kJ/kg"},
      {"measurement": "Latent Heat @ Boiling Point", "value": 131.4, "unit": "kJ/kg"}
    ]},
    {"smiles": "CC(F)F", "note": "[HFC-152a, 1,1-Difluoroethane]", "values": [
      {"measurement": "Liquid Density @ 20° C.", "value": 0.91, "unit": "g/mL"},
      {"measurement": "Liquid Viscosity @ 20° C. (mPa · S)", "value": 0.171, "unit": "mPa · S"},
      {"measurement": "Surface Tension @ 20° C. (mN/m)", "value": 10.4, "unit": "mN/m"},
      {"measurement": "Vapor Pressure @ 20° C. (kPa)", "value": 510, "unit": "kPa"},
      {"measurement": "Latent Heat @ 25° C.", "value": 279.1, "unit": "kJ/kg"},
      {"measurement": "Latent Heat @ Boiling Point", "value": 318.4, "unit": "kJ/kg"}
    ]},
    {"smiles": "C=C(F)C(F)(F)F", "note": "[HFO-1234yf, 2,3,3,3-Tetrafluoropropene]", "values": [
      {"measurement": "Liquid Density @ 20° C.", "value": 1.11, "unit": "g/mL"},
      {"measurement": "Liquid Viscosity @ 20° C. (mPa · S)", "value": 0.164, "unit": "mPa · S"},
      {"measurement": "Surface Tension @ 20° C. (mN/m)", "value": 6.8, "unit": "mN/m"},
      {"measurement": "Vapor Pressure @ 20° C. (kPa)", "value": 592, "unit": "kPa"},
      {"measurement": "Latent Heat @ 25° C.", "value": 145.4, "unit": "kJ/kg"},
      {"measurement": "Latent Heat @ Boiling Point", "value": 180.5, "unit": "kJ/kg"}
    ]},
    {"smiles": "FC=CC(F)(F)F", "note": "[HFO-1234ze, 1,3,3,3-tetrafluoropropene]", "values": [
      {"measurement": "Liquid Density @ 20° C.", "value": 1.18, "unit": "g/mL"},
      {"measurement": "Liquid Viscosity @ 20° C. (mPa · S)", "value": "0.206^3 mPa · S"},
      {"measurement": "Surface Tension @ 20° C. (mN/m)", "value": 8.9, "unit": "mN/m"},
      {"measurement": "Vapor Pressure @ 20° C. (kPa)", "value": 427, "unit": "kPa"},
      {"measurement": "Latent Heat @ 25° C.", "value": 166.8, "unit": "kJ/kg"},
      {"measurement": "Latent Heat @ Boiling Point", "value": 195.43, "unit": "kJ/kg"}
    ]}
  ]
}
